Test results reported in patent US12391660B2, “Heteroaromatic acetamide derivative, and preparation and use thereof” (Hangzhou Westan Pharmaceutical Technology Co., Ltd, priority 2019, dated 2025).
pIC50: −log10 of the molar value.

Legend:
human TRPA1 [1] = target: T1, human TRPA1 (Homo sapiens (Human), UniProt O75762); assay: FLIPR assay of inhibitory activity on human TRPA1 (calcium ion flux fluorescence); type: cell-based; conditions: HEK293 cells stably expressing human TRPA1
Procedure: 1. FLIPR Assay of Inhibitory Activity on Human TRPA1
A calcium ion flux fluorescence method (FLIPR assay) was adopted to measure the inhibitory activity of compounds on human TRPA1 channel. The literature reports of Lee and Chen et al. may be referred to for the method [Lee et al. Br J Pharmacol 2008, 153 (8): 1739-1749] [Chen et al. Pain 2011, 152(5):1165-72].
A HEK293 recombinant cell strain stably expressing human TRPA1 (Creative Biogene, NY) was cultured in DMEM (Thermo Fisher Scientific, Shanghai) medium (containing 10% calf serum, 5 μg/ml Blasticidin and 400 ug/ml G418). The incubator was under a condition of 37° C. and air humidity with 5% CO2.
TRPA1 cells were seeded in a 96-well analysis plate at a density of 75,000 cells per well (100 ul/well), and cultured overnight in an incubator at 37° C. and 5% CO2. On the second day, incubation was continued overnight under the same condition to induce the expression of TRPA1 after the culture medium in each well was poured out and a fresh supplement with the same culture medium containing 0.1 μg/ml Tetracycline was added. The further next day, the culture medium was pour out, a DMEM culture solution (also containing 2.5 mM Probenicid) containing 5 μM Fluo-4 AM (Molecular Probes) was added to each well, and incubation was conducted at 37° C. for 1 hour.
The compound was dissolved in 100% DMSO to prepare a 30 mM stock solution which was stored at −20° C. On the day of use, the compound stock solution was thawed at room temperature. Each compound was subjected to 1:5 serial dilution using DMSO medium at a starting concentration of 30 μM with 9 concentration points on a 96-well plate. Each compound was diluted in duplicate for testing. Ruthenium Red was used as the positive control compound and the same dilution was carried out at a starting concentration of 3 μM.
The cell analysis plate was placed in an FLIPR instrument […], and the compound in the compound plate was added to the corresponding hole on the cell analysis plate (First addition) via an automatic program, and the calcium ion fluorescence signal was recorded to determine whether the compound had agonistic activity. After 10 minutes, CaCl2 (Second addition) was added a final concentration of 3 mM to each well to stimulate intracellular calcium flux signals. Ca^++-dependent fluorescence signal was monitored continuously at 538 nm wavelength to analyze the inhibitory activity of the compounds.
The data was collected and analyzed using a FLIPR program. The fluorescence peak value was used to evaluate the inhibitory (or agonistic) activity of the compounds at each concentration. EXCEL and PRISM programs were used to calculate the IC50 value of the compounds.

human TRPA1 [2] = target: T1, human TRPA1; assay: Inhibitory activity on human TRPA1 by conventional patch clamp assay; type: cell-based; conditions: HEK293 human TRPA1, 100 μM cinnamaldehyde
From the text: 2. Inhibitory Activity on Human TRPA1 by Conventional Patch Clamp Assay
In order to compare the influences of different measuring methods on the inhibitory activity of compounds, a conventional patch clamp method was used to further measure the inhibitory activity of compounds 1, 11, 31, 50, and 78 on TRPA1. The principle and procedures of the conventional patch clamp assay could be found in the literature report of Chen et al [Chen et al. Pain 2011, 152(5):1165-72].
Evaluation of TRPA1 inhibitory activity of compounds was conducted using the HEK293 recombinant cell strain (Creative Biogene, NY) stably expressing human TRPA1. Cells were cultured in a DMEM/F12 (3:1, Thermo Fisher Scientific) medium (containing 5% calf serum, 2 mM glutamine and 20 mM HEPES) in an incubator at 37° C. and air humidity containing 5% CO2.
During the experiment, the adherent cells were placed in a recording room under the inverted microscope. All experiments were performed at room temperature. Each cell itself was used as a control thereof.
Test compounds at a final concentration were all prepared on the testing day and then dissolved in the extracellular fluid. The extracellular fluid was (mM): NaCl, 137; KCl, 4; CaCl2, 1.8; MgCl2, 1; HEPES, 10; glucose 10; pH 7.4 (NaOH titration). All the solutions of the test compounds and control compounds contained 0.3% DMSO.
The compounds were all perfused with a perfusion system by virtue of their own gravity. At least two cells were tested for each concentration of the compound. After the current became stable, the variation in magnitude of the current before and after the compound was used to calculate the blocking effect of the compound. 100 μM cinnamaldehyde was used as the positive control.
The cells were transferred to the perfusion tank and perfused with extracellular fluid. The intracellular fluid was: 130 mM K-aspartate; 5 mM MgCl2; 5 mM EGTA; 10 mM
HEPES; pH 7.2 (KOH titration). The intracellular fluid was stored in a small amount in a −80 degree refrigerator in batches, and thawed on the day of the experiment. The electrode was pulled with PC-10 (Narishige, Japan). Whole-cell patch clamp recording was adopted and noise was filtered at one-fifth of the sampling frequency.
The cells were clamped at 20 mV, and then depolarized to 80 mV with a square wave of 500 milliseconds to obtain the TRPA1 current (see FIG. 1).
This procedure was repeated every 3 seconds. Cells were patched in a normal extracellular fluid, current A was obtained via voltage procedure testing, and then perfusion was conducted with an extracellular fluid added with 100 μM cinnamaldehyde to activate TRPA1 current to obtain current B. After the current stabilized, elution was conducted with normal extracellular fluid and perfusion was conducted with an extracellular fluid added with 100 μM cinnamaldehyde and a compound at various concentrations to obtain current C. Finally, blocking rate of the compound was obtained according to […], see FIG. 2.
Data collection and analysis was conducted using pCLAMP 10 (Molecular Devices, Union City, CA). Current stabilization meant that the variation in the current with time was within a limited range. The magnitude of the current after stabilization was used to reflect the effect of the compound in this process.

mouse asthma model = conditions: cited from earlier work
guinea pigs = conditions: cough induced by acrolein, crotonaldehyde, cinnamaldehyde; cited from earlier work
mouse model of COPD = conditions: pretreatment of mice, cigarette smoke; cited from earlier work
asthmatic rats = assay: Ovalbumin-induced asthma rat model (HE staining, lung tissue inflammation area, airway inflammation score); type: in vivo, SD rats; conditions: compared with the model group
From the text: 4. Effects of Compounds on Ovalbumin-Induced Asthma in Mouse and Rat Models
SPF-grade SD male rats (purchased from Zhejiang Academy of Medical Sciences, license number SCXK (Zhejiang) 2019-0002) with a body weight of 160-180 g; and SPF-grade female BABL/c mice (purchased from Zhejiang Weitong Lihua Experimental Animals Technology Co., Ltd., license number SCXK (Zhejiang) 2019-0001) with a body weight of 16-18 g were used. The above animals were raised by the Experimental Animal Center of Zhejiang Academy of Traditional Chinese Medicine.
Formulation of compound solution: compound was vortexed in a solvent system, dissolved by ultrasound, and prepared into a solution at a corresponding concentration, which was prepared just before use (the solvent system was composed of 5% Solutol HS 15, 5% DMSO and 90% physiological saline).
BABL/c mice or SD rats were randomly divided into: normal control group, model control group, dexamethasone group (0.72 mg/kg), and the respective test compound groups (one group for each dose), 10 mice in each group; 6 rats in each group.
Sensitization of rats: On Day 1 and Day 8, the model control group and the respective drug administration groups were intraperitoneally injected with 1 ml of 10% OVA sensitizing solution, and the normal group was intraperitoneally injected with an equal volume of normal saline.
Rat: from Day 15, the dexamethasone group and the respective test compound groups were intraperitoneally injected, 20 minutes before challenge, with the corresponding drugs with an injection volume of 0.3 ml/100 g; the model control group was intraperitoneally injected, 20 minutes before challenge, with an equal volume of solvent system; and the normal control group was not treated. Administration was conducted for 7 consecutive days. […]
The rat was anesthetized with 10% urethane at 1.3 ml/100 g volume, and the left lung tissue was taken and fixed in 4% neutral formaldehyde, paraffin-embedded according to routine operation, sectioned for HE staining. […] NIS-Elements D 3.2 software was used to manually integrate and measure the total area of lung tissue sections and the inflammation area under all fields of view, the total areas under each field of view were accumulated, and the percentage of the cumulative area of inflammation in the total area was calculated, wherein the percentage of inflammation area=cumulative area of inflammation/total area×100%.
All data were expressed as mean±standard deviation (x±s), and the data were processed by SPSS 20.0 statistical software. […]

T1 sequence (O75762 whole entry): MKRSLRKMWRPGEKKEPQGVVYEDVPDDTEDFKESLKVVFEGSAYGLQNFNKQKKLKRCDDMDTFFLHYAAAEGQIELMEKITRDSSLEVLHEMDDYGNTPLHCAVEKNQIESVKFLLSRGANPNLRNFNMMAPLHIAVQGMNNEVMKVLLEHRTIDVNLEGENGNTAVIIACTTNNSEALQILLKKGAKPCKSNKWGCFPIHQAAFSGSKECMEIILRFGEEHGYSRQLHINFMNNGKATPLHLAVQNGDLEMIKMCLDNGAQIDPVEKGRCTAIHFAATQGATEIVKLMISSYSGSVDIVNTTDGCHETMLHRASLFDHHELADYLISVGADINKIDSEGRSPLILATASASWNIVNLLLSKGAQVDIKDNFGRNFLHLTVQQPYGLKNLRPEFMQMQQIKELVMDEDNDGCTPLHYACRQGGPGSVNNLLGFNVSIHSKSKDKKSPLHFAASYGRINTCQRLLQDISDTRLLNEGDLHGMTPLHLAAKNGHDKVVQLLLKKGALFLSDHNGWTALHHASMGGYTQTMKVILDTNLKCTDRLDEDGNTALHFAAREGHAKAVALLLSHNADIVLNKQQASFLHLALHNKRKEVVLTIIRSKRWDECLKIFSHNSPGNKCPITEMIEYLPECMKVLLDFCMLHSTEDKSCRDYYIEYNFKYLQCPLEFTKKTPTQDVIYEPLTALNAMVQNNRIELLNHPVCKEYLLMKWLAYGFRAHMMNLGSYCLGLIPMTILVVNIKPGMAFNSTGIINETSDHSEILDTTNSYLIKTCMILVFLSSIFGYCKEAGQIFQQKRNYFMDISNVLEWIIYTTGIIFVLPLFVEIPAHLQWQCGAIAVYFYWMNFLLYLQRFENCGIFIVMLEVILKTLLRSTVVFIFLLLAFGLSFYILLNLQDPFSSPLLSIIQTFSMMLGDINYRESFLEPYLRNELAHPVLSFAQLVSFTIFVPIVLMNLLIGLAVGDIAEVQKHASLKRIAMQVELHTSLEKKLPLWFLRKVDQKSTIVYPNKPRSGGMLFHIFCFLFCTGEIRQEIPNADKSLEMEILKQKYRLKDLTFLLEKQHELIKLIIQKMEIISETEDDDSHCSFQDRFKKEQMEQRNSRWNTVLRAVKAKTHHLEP

| Compound | pIC50 (human TRPA1 [1]) | pIC50 (human TRPA1 [2]) | also measured |
| --- | --- | --- | --- |
| N#Cc1ccc(NC2(C(=O)N3CCN(c4cccc(C(F)(F)F)n4)CC3)CCCC2)cc1 [Compound 11, 4-((1-(4-(6-(trifluoromethyl)pyridin-2-yl)piperazine-1-carbonyl)cyclopentyl)amino)benz onitrile] | 7.72 | 7.46 |  |
| N#Cc1ccc(OC2(C(=O)N3CCN(c4nccc(C(F)(F)F)n4)CC3)CCCC2)cc1 [Compound 50, 4-((1-(4-(4-(trifluoromethyl)pyrimidin-2-yl)piperazine-1-carbonyl)cyclopentyl)oxy)benz onitrile] | 7.55 | 7.19 |  |
| CC(C)(C)C1CCN(C(=O)C2Cc3cc(C#N)ccc3N2)CC1 (centres unmarked) [Compound 78, 2-(4-(tert-butyl)piperidine-1-carbonyl)-5-cyanoindoline] | 7.28 | 7.08 |  |
| Cn1c(=O)c2c(CC(=O)Nc3nc(-c4ccc(F)c(C(F)(F)F)c4F)cs3)csc2n(C)c1=O [GRC17536] |  |  | acidophilic leukocytes (mouse asthma model): reduce; mucus secretion and airway hyperreactivity (mouse asthma model): inhibit |
| CC(C)c1ccc(NC(=O)Cn2cnc3c2c(=O)n(C)c(=O)n3C)cc1 [HC-030031] |  |  | cough response (guinea pigs): significantly attenuate; plasma protein extravasation induced by CS (mouse model of COPD): protective effect |
| C[C@@H]1C[C@H]2[C@@H]3CCC4=CC(=O)C=C[C@]4(C)[C@@]3(F)[C@@H](O)C[C@]2(C)[C@@]1(O)C(=O)CO [dexamethasone, reference compound] |  |  | lung tissue inflammation and inflammatory cell infiltration around the airway (HE x40) (asthmatic rats): significant improvement |
